According to patent publication US11771709B2, “ALK protein degradation agent and anti-tumor application thereof” (ShanghaiTech University, priority 2017, dated 2023):

Columns and labels:
[1] = test system: SR (NPM-ALK) cells; test: Growth inhibition IC50 in ALCL SR cells (CCK8/WST, 72 hours); type: cell-based; conditions: SR cells; for IC50: 72 h, WST, Brigatinib-based PROTAD molecules (Table 3)
Protocol: (§1) SR (NPM-ALK) and NCI-H2228 (EML4-ALK, V3) cells were purchased from ATCC. […] All Cells were cultured in RPMI1640 medium with 10% FBS and Penicillin-Streptomycin in 37° C. incubator with 5% CO2.
(§2) Cells were seeded at specific density in 96 well plates one day before treatment. […] Viable cells were measured via CCK8 reagent and IC50s were calculated via Prism Graphad. Experiments were repeated at least three times.

[2] = test system: NCI-H3122 (EML4-ALK, V1) cells; test: Growth inhibition IC50 in lung cancer H3122 cells (Cell Titer Blue / Cell Titer Glo); conditions: for IC50: Homo sapiens, NCI-H3122, H3122 cells, CTB (Cell Titer Blue)
Protocol: as §1, §2

[3] = molecular target: T1, ALK protein in H3122 (EML4-ALK) cells (Homo sapiens, UniProt Q9UM73); test: Western blot of ALK protein level (degradation, DC50), ALK phosphorylation and downstream signaling in H3122 cells; type: cell-based; conditions: ALK protein degradation in H3122 cells
T1 construct: EML4 (Echinoderm microtubule-associated protein-like 4, Q9HC35) fusion partner, variant 1; host or cells: NCI-H3122 lung adenocarcinoma cells; the other entry of the earlier key: EML4 (Q9HC35, Echinoderm microtubule-associated protein-like 4)
T1 sequence (Q9UM73 with tags, fused parts or gaps): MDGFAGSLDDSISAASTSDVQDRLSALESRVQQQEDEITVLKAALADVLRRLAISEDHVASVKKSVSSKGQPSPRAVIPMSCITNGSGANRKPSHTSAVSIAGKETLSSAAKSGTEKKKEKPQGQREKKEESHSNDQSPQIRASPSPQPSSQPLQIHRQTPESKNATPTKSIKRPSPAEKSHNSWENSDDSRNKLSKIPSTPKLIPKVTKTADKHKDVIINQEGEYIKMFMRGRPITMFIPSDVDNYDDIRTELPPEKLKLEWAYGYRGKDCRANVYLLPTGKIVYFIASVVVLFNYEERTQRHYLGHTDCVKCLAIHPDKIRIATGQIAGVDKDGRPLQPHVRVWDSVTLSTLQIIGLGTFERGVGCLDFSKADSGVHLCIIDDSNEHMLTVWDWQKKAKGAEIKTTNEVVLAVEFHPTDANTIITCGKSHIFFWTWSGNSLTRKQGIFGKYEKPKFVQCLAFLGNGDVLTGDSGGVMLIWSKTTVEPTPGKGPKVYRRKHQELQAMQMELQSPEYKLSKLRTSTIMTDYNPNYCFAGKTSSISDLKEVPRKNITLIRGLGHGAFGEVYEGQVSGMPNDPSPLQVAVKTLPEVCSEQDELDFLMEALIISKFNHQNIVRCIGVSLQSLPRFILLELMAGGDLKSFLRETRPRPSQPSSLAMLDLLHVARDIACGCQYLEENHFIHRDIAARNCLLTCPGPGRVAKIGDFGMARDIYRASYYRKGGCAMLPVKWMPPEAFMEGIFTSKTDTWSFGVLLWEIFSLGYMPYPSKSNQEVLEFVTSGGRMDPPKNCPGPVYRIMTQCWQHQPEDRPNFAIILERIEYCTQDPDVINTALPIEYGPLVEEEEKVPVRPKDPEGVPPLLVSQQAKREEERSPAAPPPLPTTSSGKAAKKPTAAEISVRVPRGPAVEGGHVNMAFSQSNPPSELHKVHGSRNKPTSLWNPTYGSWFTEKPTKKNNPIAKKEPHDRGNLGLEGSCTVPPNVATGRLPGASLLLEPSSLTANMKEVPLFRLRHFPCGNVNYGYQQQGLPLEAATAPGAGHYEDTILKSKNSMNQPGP
Protocol: (§3) Cancer cells were seeded in 1 ml RPMI1640 medium in 24-well plate at the density of 3×10^5 or 1.5×10^5 cells/ml. […] Then cells were washed twice with PBS and lyzed in RIPA lysis buffer with Halt Proteinase and Phosphotase inhibitor. Equal amount of proteins were loaded to run SDS-PAGE gels after denature. The gels were blotted to PVDF membrane. After incubating with first and secondary antibodies, the images were developed using SuperSignal West Pico Chemiluminescent Substrate.
(§4) DC50 (concentration required to degrade protein by half) were calculated based on the intensity from western blot, and data were analyzed via Prism GraphPad with non-linear regression.

[4] = molecular target: T2, ALK protein in SR (NPM-ALK) cells (Homo sapiens, UniProt Q9UM73); test: Western blot of ALK protein level (degradation, DC50), ALK phosphorylation and downstream signaling in SR cells; type: cell-based; conditions: ALK protein degradation in SR cells
T2 construct: NPM (nucleophosmin, NPM1, P06748) fusion partner; host or cells: SR (ALCL) cells; the other entry of the earlier key: NPM1 (P06748, Nucleophosmin)
T2 sequence (Q9UM73 with tags, fused parts or gaps): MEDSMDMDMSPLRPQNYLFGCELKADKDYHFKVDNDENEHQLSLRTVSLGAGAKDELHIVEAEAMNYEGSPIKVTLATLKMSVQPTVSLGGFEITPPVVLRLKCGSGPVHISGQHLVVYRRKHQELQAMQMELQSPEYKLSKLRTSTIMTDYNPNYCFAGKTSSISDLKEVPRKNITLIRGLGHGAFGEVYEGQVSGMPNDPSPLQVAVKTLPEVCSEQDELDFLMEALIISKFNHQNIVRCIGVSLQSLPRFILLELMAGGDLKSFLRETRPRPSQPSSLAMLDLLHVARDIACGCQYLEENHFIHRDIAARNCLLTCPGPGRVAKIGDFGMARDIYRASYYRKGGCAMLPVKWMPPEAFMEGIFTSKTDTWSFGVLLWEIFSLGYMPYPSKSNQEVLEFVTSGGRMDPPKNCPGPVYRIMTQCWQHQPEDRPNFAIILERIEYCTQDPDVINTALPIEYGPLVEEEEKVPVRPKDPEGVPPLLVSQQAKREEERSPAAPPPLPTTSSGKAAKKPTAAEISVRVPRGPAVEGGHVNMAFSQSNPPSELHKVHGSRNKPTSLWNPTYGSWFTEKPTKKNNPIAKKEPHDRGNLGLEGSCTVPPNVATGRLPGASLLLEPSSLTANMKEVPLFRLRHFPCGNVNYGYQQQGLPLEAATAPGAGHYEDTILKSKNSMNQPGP
Protocol: as §3, §4

In the case of Cc1cc(Nc2ncc(Cl)c(Nc3ccccc3S(=O)(=O)C(C)C)n2)c(OC(C)C)cc1C1CCN(C(=O)CCCCCCC(=O)N[C@H](C(=O)N2C[C@H](O)C[C@H]2C(=O)NCc2ccc(-c3scnc3C)cc2)C(C)(C)C)CC1 [SIAIS074008, (2S,4R)-1-((S)-2-(8-(4-(4-((5-chloro-4-((2-(isopropylsulfonyl)phenyl)amino)pyrimidin-2-yl)amino)-5-isopropoxy-2-methylphenyl)piperidin-1-yl)-8-oxooctanamido)-3,3-dimethylbutanoyl)-4-hydroxy-N-(4-(4-methylthiazol-5-yl)benzyl)pyrrolidine-2-carboxamide], the growth inhibition effect [1] is reported as “IC50 at the nano mole range”, the growth inhibition effect ([2]; H3122 cells) is reported as “IC50 at the nano mole range” and the IC50 [2] is reported as 428 nM.
For Cc1cc(Nc2ncc(Cl)c(Nc3ccccc3S(=O)(=O)C(C)C)n2)c(OC(C)C)cc1C1CCN(C(=O)CCCCCCCCCC(=O)N[C@H](C(=O)N2C[C@H](O)C[C@H]2C(=O)NCc2ccc(-c3scnc3C)cc2)C(C)(C)C)CC1 [SIAIS074026, (2S,4R)-1-((S)-2-(11-(4-(4-((5-chloro-4-((2-(isopropylsulfonyl)phenyl)amino)pyrimidin-2-yl)amino)-5-isopropoxy-2-methylphenyl)piperidin-1-yl)-11-oxoundecanamido)-3,3-dimethylbutanoyl)-4-hydroxy-N-(4-(4-methylthiazol-5-yl)benzyl)pyrrolidine-2-carboxamide], the IC50 [2] was 2560 nM.
Compound Cc1cc(Nc2ncc(Cl)c(Nc3ccccc3S(=O)(=O)C(C)C)n2)c(OC(C)C)cc1C1CCN(C(=O)CCNc2cccc3c2C(=O)N(C2CCC(=O)NC2=O)C3=O)CC1 (stereo not drawn) [SIAIS151034, 4-((3-(4-(4-((5-chloro-4-((2-(isopropylsulfonyl)phenyl)amino)pyrimidin-2-yl)amino)-5-isopropoxy-2-methylphenyl)piperidin-1-yl)-3-oxopropyl)amino)-2-(2,6-dioxopiperidin-3-yl)isoindoline-1,3-dione] has an IC50 [2] of 14 nM.
With Cc1cc(Nc2ncc(Cl)c(Nc3ccccc3S(=O)(=O)C(C)C)n2)c(OC(C)C)cc1C1CCN(C(=O)CCCCNc2cccc3c2C(=O)N(C2CCC(=O)NC2=O)C3=O)CC1 (stereo not drawn) [SIAIS151036, 4-((5-(4-(4-((5-chloro-4-((2-(isopropylsulfonyl)phenyl)amino)pyrimidin-2-yl)amino)-5-isopropoxy-2-methylphenyl)piperidin-1-yl)-5-oxopentyl)amino)-2-(2,6-dioxopiperidin-3-yl)isoindoline-1,3-dione] the IC50 [2] was 31 nM.
Cc1cc(Nc2ncc(Cl)c(Nc3ccccc3S(=O)(=O)C(C)C)n2)c(OC(C)C)cc1C1CCN(C(=O)CCOCCOCCC(=O)N[C@H](C(=O)N2C[C@H](O)C[C@H]2C(=O)NCc2ccc(-c3scnc3C)cc2)C(C)(C)C)CC1 [SIAIS151038, (2S,4R)-1-((S)-2-(3-(2-(3-(4-(4-((5-chloro-4-((2-(isopropylsulfonyl)phenyl)amino)pyrimidin-2-yl)amino)-5-isopropoxy-2-methylphenyl)piperidin-1-yl)-3-oxopropoxy)ethoxy)propanamido)-3,3-dimethylbutanoyl)-4-hydroxy-N-(4-(4-methylthiazol-5-yl)benzyl)pyrrolidine-2-carboxamide] gave an IC50 [2] of 393 nM.
For Cc1cc(Nc2ncc(Cl)c(Nc3ccccc3S(=O)(=O)C(C)C)n2)c(OC(C)C)cc1C1CCN(C(=O)CCOCCOCCOCCC(=O)N[C@H](C(=O)N2C[C@H](O)C[C@H]2C(=O)NCc2ccc(-c3scnc3C)cc2)C(C)(C)C)CC1 [SIAIS151039, (2S,4R)-1-((S)-2-(tert-butyl)-16-(4-(4-((5-chloro-4-((2-(isopropylsulfonyl)phenyl)amino)pyrimidin-2-yl)amino)-5-isopropoxy-2-methylphenyl)piperidin-1-yl)-4,16-dioxo-7,10,13-trioxa-3-azahexadecanoyl)-4-hydroxy-N-(4-(4-methylthiazol-5-yl)benzyl)pyrrolidine-2-carboxamide], the IC50 [2] was 441 nM.
Cc1cc(Nc2ncc(Cl)c(Nc3ccccc3S(=O)(=O)C(C)C)n2)c(OC(C)C)cc1C1CCN(C(=O)CCOCCOCCOCCOCCC(=O)N[C@H](C(=O)N2C[C@H](O)C[C@H]2C(=O)NCc2ccc(-c3scnc3C)cc2)C(C)(C)C)CC1 [SIAIS151040, (2S,4R)-1-((S)-2-(tert-butyl)-19-(4-(4-((5-chloro-4-((2-(isopropylsulfonyl)phenyl)amino)pyrimidin-2-yl)amino)-5-isopropoxy-2-methylphenyl)piperidin-1-yl)-4,19-dioxo-7,10,13,16-tetraoxa-3-azanonadecanoyl)-4-hydroxy-N-(4-(4-methylthiazol-5-yl)benzyl)pyrrolidine-2-carboxamide] gave an IC50 [2] of 141 nM.
Work on Cc1cc(Nc2ncc(Cl)c(Nc3ccccc3S(=O)(=O)C(C)C)n2)c(OC(C)C)cc1C1CCN(C(=O)CCOCCOCCOCCOCCOCCC(=O)N[C@H](C(=O)N2C[C@H](O)C[C@H]2C(=O)NCc2ccc(-c3scnc3C)cc2)C(C)(C)C)CC1 [SIAIS151041, (2S,4R)-1-((S)-2-(tert-butyl)-22-(4-(4-((5-chloro-4-((2-(isopropylsulfonyl)phenyl)amino)pyrimidin-2-yl)amino)-5-isopropoxy-2-methylphenyl)piperidin-1-yl)-4,22-dioxo-7,10,13,16,19-pentaoxa-3-azadocosanoyl)-4-hydroxy-N-(4-(4-methylthiazol-5-yl)benzyl)pyrrolidine-2-carboxamide] yielded an IC50 [2] of 332 nM.
For Cc1cc(Nc2ncc(Cl)c(Nc3ccccc3S(=O)(=O)C(C)C)n2)c(OC(C)C)cc1C1CCN(C(=O)COCCOCC(=O)N[C@H](C(=O)N2C[C@H](O)C[C@H]2C(=O)NCc2ccc(-c3scnc3C)cc2)C(C)(C)C)CC1 [SIAIS151042, (2S,4R)-1-((S)-2-(2-(2-(2-(4-(4-((5-chloro-4-((2-(isopropylsulfonyl)phenyl)amino)pyrimidin-2-yl)amino)-5-isopropoxy-2-methylphenyl)piperidin-1-yl)-2-oxoethoxy)ethoxy)acetamido)-3,3-dimethylbutanoyl)-4-hydroxy-N-(4-(4-methylthiazol-5-yl)benzyl)pyrrolidine-2-carboxamide], the IC50 [2] was 153 nM.
For Cc1cc(Nc2ncc(Cl)c(Nc3ccccc3S(=O)(=O)C(C)C)n2)c(OC(C)C)cc1C1CCN(C(=O)CCCCCNc2cccc3c2C(=O)N(C2CCC(=O)NC2=O)C3=O)CC1 (stereo not drawn) [SIAIS151043, 4-((6-(4-(4-((5-chloro-4-((2-(isopropylsulfonyl)phenyl)amino)pyrimidin-2-yl)amino)-5-isopropoxy-2-methylphenyl)piperidin-1-yl)-6-oxohexyl)amino)-2-(2,6-dioxopiperidin-3-yl)isoindoline-1,3-dione], the IC50 [2] was 156 nM.
COc1cc(N2CCN(C(=O)CCCCCCNc3cccc4c3C(=O)N(C3CCC(=O)NC3=O)C4=O)CC2)ccc1Nc1ncc(Cl)c(Nc2ccccc2P(C)(C)=O)n1 (stereo not drawn) [SIAIS1197077, 4-((7-(4-(4-((5-chloro-4-((2-(dimethylphosphoryl)phenyl)amino)pyrimidin-2-yl)amino)-3-methoxyphenyl)piperazin-1-yl)-7-oxoheptyl)amino)-2-(2,6-dioxopiperidin-3-yl)isoindoline-1,3-dione] was tested, and the DC50 [3] was 50 to 500 nM, the IC50 [1] was 7.9 ± 4.9 nM and the DC50 [4] was 0.1 to 0.5 nM.
COc1cc(N2CCN(C(=O)CCCCCCC(=O)N[C@H](C(=O)N3C[C@H](O)C[C@H]3C(=O)NCc3ccc(-c4scnc4C)cc3)C(C)(C)C)CC2)ccc1Nc1ncc(Cl)c(Nc2ccccc2P(C)(C)=O)n1 [SIAIS1197153, (2S,4R)-1-((S)-2-(8-(4-(4-((5-chloro-4-((2-(dimethylphosphoryl)phenyl)amino)pyrimidin-2-yl)amino)-3-methoxyphenyl)piperazin-1-yl)-8-oxooctanamido)-3,3-dimethylbutanoyl)-4-hydroxy-N-(4-(4-methylthiazol-5-yl)benzyl)pyrrolidine-2-carboxamide] gave a DC50 [3] of 1 to 50 nM, an IC50 [1] of 4.6 ± 1.9 nM and a DC50 [4] of 1 to 50 nM.
In the case of COc1cc(N2CCN(C(=O)CCCCCCCC(=O)N[C@H](C(=O)N3C[C@H](O)C[C@H]3C(=O)NCc3ccc(-c4scnc4C)cc3)C(C)(C)C)CC2)ccc1Nc1ncc(Cl)c(Nc2ccccc2P(C)(C)=O)n1 [SIAIS1197155, (2S,4R)-1-((S)-2-(9-(4-(4-((5-chloro-4-((2-(dimethylphosphoryl)phenyl)amino)pyrimidin-2-yl)amino)-3-methoxyphenyl)piperazin-1-yl)-9-oxononanamido)-3,3-dimethylbutanoyl)-4-hydroxy-N-(4-(4-methylthiazol-5-yl)benzyl)pyrrolidine-2-carboxamide], the DC50 [3] is reported as 1 to 50 nM, the IC50 [1] is reported as 3.4 ± 0.5 nM and the DC50 [4] is reported as 1 to 10 nM.
COc1cc(N2CCN(C(=O)CCCCCCCCC(=O)N[C@H](C(=O)N3C[C@H](O)C[C@H]3C(=O)NCc3ccc(-c4scnc4C)cc3)C(C)(C)C)CC2)ccc1Nc1ncc(Cl)c(Nc2ccccc2P(C)(C)=O)n1 [SIAIS1197157, (2S,4R)-1-((S)-2-(10-(4-(4-((5-chloro-4-((2-(dimethylphosphoryl)phenyl)amino)pyrimidin-2-yl)amino)-3-methoxyphenyl)piperazin-1-yl)-10-oxodecanamido)-3,3-dimethylbutanoyl)-4-hydroxy-N-(4-(4-methylthiazol-5-yl)benzyl)pyrrolidine-2-carboxamide] showed a DC50 [3] of 1 to 50 nM, an IC50 [1] of 3.1 ± 1.3 nM and a DC50 [4] of 1 to 10 nM.
